In patent US5011992A, “Pharmacologically active substituted benzamides” (Bristol-Myers Squibb Company, priority 1989, dated 1991):
Where a name gives a salt, the structure may show the parent alone.

Each compound was assayed against T1, dopaminergic (D2) receptors (Rattus norvegicus, UniProt P61169) (assay: 3H-Spiperone Displacement (striatal rat brain homogenates)). Details: rat striatal homogenate, approx. 100 pM 3H-spiperone, 37° C., 15 min.
T1 construct: Homogenates (Brinkmann Polytron) of the corpus striatum in cold HEPES.KOH buffer; from tissue; host or cells: rat corpus striatum (washed membrane homogenate; rats from Charles River)
T1 sequence (P61169 whole entry): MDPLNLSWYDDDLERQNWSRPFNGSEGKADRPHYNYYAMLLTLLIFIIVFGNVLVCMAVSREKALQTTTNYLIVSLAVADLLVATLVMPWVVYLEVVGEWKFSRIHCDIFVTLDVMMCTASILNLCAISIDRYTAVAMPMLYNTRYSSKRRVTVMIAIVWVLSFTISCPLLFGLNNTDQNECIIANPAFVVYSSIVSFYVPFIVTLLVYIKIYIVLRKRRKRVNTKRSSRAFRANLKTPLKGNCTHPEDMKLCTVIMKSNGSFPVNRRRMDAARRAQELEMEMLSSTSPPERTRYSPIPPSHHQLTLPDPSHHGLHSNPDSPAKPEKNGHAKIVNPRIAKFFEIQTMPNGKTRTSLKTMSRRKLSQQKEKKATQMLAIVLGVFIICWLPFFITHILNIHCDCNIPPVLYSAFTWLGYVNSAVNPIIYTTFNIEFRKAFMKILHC
Assay type: binding
Experimental: (A) ^3 H-Spiperone Displacement
Rats (150±10 g; Charles River) were decapitated, the corpus striatum dissected out and frozen on dry ice. The tissues were pooled and stored at -80° C. until used. Homogenates (Brinkmann Polytron) of the corpus striatum in cold HEPES.KOH buffer (final pH=7.4) were centrifuged at 39,000× G. The supernatant was discarded and the pellets were re-suspended in HEPES.KOH buffer and re-centrifuged as above.
Tests to determine the Inhibitory Concentration50 (IC50) of the compounds of Formula I and reference compounds versus ^3 H-spiperone were conducted as follows. Tubes containing either 100 μL of buffer mixture (for total binding), 100 μL of buffer mixture plus 100 μL of 10^-4 M D(+)-butaclamol (for blanks, i.e. non-specific binding), or 100 μL of buffer mixture containing 10^-7, 10^-6 or 10^-5 M test compound were prepared. To each were added 100 μL of a solution of ^3 H-spiperone (New England Nuclear) in buffer mixture (2000 c.p.m. in the incubation mixture) and 800 μL of the striatal tissue suspension. The tubes were then diluted to 1 mL with buffer mixture, giving a final concentration of 10^-8, 10^-7 or 10^-6 M test compound and approximately 100 pM ^3 H-spiperone. The samples were incubated at 37° C. for 15 minutes, filtered in vacuo on glass fiber filters and counted by liquid scintillation spectrometry. […] All samples were run in duplicate.
In the case of `CCN(CC)CCNC(=O)c1cc(Cl)c(N)cc1OCC(=O)C(C)C` [Example 29], the IC50 is reported as over 1000 nM.
Work on `CCN(CC)CCNC(=O)c1cc(Cl)c(N)cc1OCCOCCOC` [Example 46, 4-Amino-5-chloro-N-[2-(diethylamino)ethyl]-2-(2-methoxyethoxyethyl)oxybenzamide] yielded an IC50 of over 1000 nM.
In the case of `CCN(CC)CCNC(=O)c1cc(Cl)c(N)cc1OCC#N` [Example 13, 4-Amino-5-chloro-2-cyanomethoxy-N-[2-(diethylamino)ethyl]benzamide], the IC50 is reported as over 1000 nM.
`CCN(CC)CCNC(=O)c1cc(Cl)c(N)cc1OCC(C)O` (stereo not drawn) [Example 12, 4-Amino-5-chloro-N-[2-(diethylamino)ethyl]-2-(2-hydroxypropan-1-yl)oxybenzamide] gave an IC50 of over 1000 nM.
`CCC(=O)COc1cc(N)c(Cl)cc1C(=O)NCCN(CC)CC` [Example 26, 4-Amino-2-(2-butanon-1-yl)oxy-5-chloro-N-[2-(diethylamino)-ethyl]benzamide] gave an IC50 of over 1000 nM.
With `CCN(CC)CCNC(=O)c1cc(Cl)c(N)cc1OCC(O)Cc1ccccc1` (stereo not drawn) [Example 33, 4-Amino-5-chloro-N-[2-(diethylamino)ethyl]-2-[2-(2-hydroxy-3-phenylpropyl)]oxybenzamide] the IC50 was over 1000 nM.
`CCN(CC)CCNC(=O)c1cc(Cl)c(N)cc1OCC(=O)Cc1ccccc1` [Example 30] gave an IC50 of over 1000 nM.
In the case of `CCN(CC)CCNC(=O)c1cc(Cl)c(N)cc1OC(C)C(C)O` (mixture of isomers) [Example 41, 4-Amino-5-chloro-N-2-(diethylamino)ethyl]-2-[(2-hydroxy)but-3-yl]oxybenzamide (mixture of threo and erythro isomers)], the IC50 is reported as over 1000 nM.
`CCN(CC)CCNC(=O)c1cc(Cl)c(N)cc1OCC(OC)OC` [Example 3] showed an IC50 of over 1000 nM.
With `CCN(CC)CCNC(=O)c1cc(Cl)c(N)cc1OCc1cc(C)no1` [Example 19, 4-Amino-5-chloro-N-[2-(diethylamino)ethyl]-2-(3-methylisoxazol-5-yl)methoxybenzamide] the IC50 was over 1000 nM.
For `CCN(CC)CCNC(=O)c1cc(Cl)c(N)cc1OCC(=O)c1ccccc1` [Example 6, 4-Amino-2-(2-phenyl-2-oxoethoxy)-5-chloro-N-[2-(diethylamino)ethyl]benzamid], the IC50 was over 1000 nM.
Work on `CCN(CC)CCNC(=O)c1cc(Cl)c(N)cc1OCC(=O)OC` [Example 15, 4-Amino-5-chloro-N-[2-(diethylamino)ethyl]-2-(2-methoxy-2-oxoethoxy)benzamide] yielded an IC50 of over 1000 nM.
With `CCN(CC)CCNC(=O)c1cc(Cl)c(N)cc1OCOCCOC` [Example 4] the IC50 was over 1000 nM.
Compound `CCN(CC)CCNC(=O)c1cc(Cl)c(N)cc1OC1CCCCC1=O` (stereo not drawn) [Example 9, 4-Amino-5-chloro-2-(cyclohexanon-2-yl)oxy-N-[2-(diethylamino)ethyl]benzamide] has an IC50 of over 1000 nM.
`CCN(CC)CCNC(=O)c1cc(Cl)c(N)cc1OC(C)C(C)=O` (stereo not drawn) [Example 7, 4-Amino-2-(butan-2-on-3-yl)oxy-5-chloro-N-[2-(diethylamino)-ethyl]benzamide] gave an IC50 of over 1000 nM.
With `C=CCC(Oc1cc(N)c(Cl)cc1C(=O)NCCN(CC)CC)C(C)=O` (stereo not drawn) [Example 24, 4-Amino-5-chloro-N-[2-(diethylamino)ethyl]-2-(5-hexen-2-on-3-yl)-oxybenzamide hydrochloride] the IC50 was over 1000 nM.
`CCN(CC)CCNC(=O)c1cc(Cl)c(N)cc1OCCC1(C)OCCO1` [Example 54] gave an IC50 of over 1000 nM.
`CCC(=O)C(C)Oc1cc(N)c(Cl)cc1C(=O)NCCN(CC)CC` (stereo not drawn) [Example 28, 4-Amino-5-chloro-2-(pentan-3-on-2-yl)oxy-N-(2-diethylaminoethyl)benzamide hydrochloride] gave an IC50 of over 1000 nM.
`CCN(CC)CCNC(=O)c1cc(Cl)c(N)cc1OCC(C)=O` [Example 5, 4-Amino-5-chloro-N-[2-(diethylamino)ethyl]-2-(2-propanon-1-yl)-oxybenzamide] was tested, and the IC50 was over 1000 nM.
`CCN(CC)CCNC(=O)c1cc(Cl)c(N)cc1OCC1=NCCN1` [Example 51, 4-Amino-5-chloro-N-[2-(diethylamino)ethyl]-2-(1H-4,5-dihydroimidazol-2-yl)methoxybenzamide] gave an IC50 of over 1000 nM.
`CCN(CC)CCNC(=O)c1cc(Cl)c(N)cc1OCC1OCCO1` [Example 43] was tested, and the IC50 was over 1000 nM.
Compound `CCN(CC)CCNC(=O)c1cc(Cl)c(N)cc1OCCO` [Example 2, 4-Amino-5-chloro-N-[2-(diethylamino)ethyl]-2-(2-hydroxyethoxy)benzamide] has an IC50 of over 1000 nM.
For `CCN(CC)CCNC(=O)c1cc(Cl)c(N)cc1OCCOC` [Example 1, 4-Amino-5-chloro-N-[2-(diethylamino)ethyl]-2-(2-methoxyethoxy)-benzamide], the IC50 was over 1000 nM.
In the case of `CCN(CC)CCNC(=O)c1cc(Cl)c(N)cc1OC(C)C#N` (stereo not drawn) [Example 14], the IC50 is reported as over 1000 nM.
With `CCCC(=O)COc1cc(N)c(Cl)cc1C(=O)NCCN(CC)CC` [Example 27, 4-Amino-5-chloro-N-[2-(diethylamino)ethyl]-2-(pentan-2-on-1-yl)oxybenzamide] the IC50 was over 1000 nM.
With `CCC(Oc1cc(N)c(Cl)cc1C(=O)NCCN(CC)CC)C(C)=O` (stereo not drawn) [Example 25, 4-Amino-5-chloro-N-[2-(diethylamino)ethyl]-2-(pentan-2-on-3-yl)-oxybenzamide] the IC50 was over 1000 nM.
Compound `CCN(CC)CCNC(=O)c1cc(Cl)c(N)cc1OCC1COC(C)(C)O1` (stereo not drawn) [Example 18, 4-Amino-5-chloro-N-[2-(diethylamino)ethyl]-2-(2,2-dimethyl-1,3-dioxalan-4-yl)methoxybenzamide] has an IC50 of over 1000 nM.
Compound `CCN(CC)CCNC(=O)c1cc(Cl)c(N)cc1OCC(C)=NO` [Example 10, 4-Amino-5-chloro-N-[2-(diethylamino)ethyl]-2-[(2-hydroxyimino)propan-1-yl]oxybenzamide] has an IC50 of over 1000 nM.
`CCN(CC)CCNC(=O)c1cc(Cl)c(N)cc1OC(C)(C)C(C)=O` [Example 31, 4-Amino-5-chloro-N-2-(diethylamino)ethyl]-2-[(3-methyl)butan-2-on-3-yl]oxybenzamide monohydrate] gave an IC50 of over 1000 nM.
Work on `CCN(CC)CCNC(=O)c1cc(Cl)c(N)cc1OCc1ccccn1` [Example 45, 4-Amino-5-chloro-N-[2-(diethylamino)ethyl]-2-(2-pyridinomethyl)-oxybenzamide] yielded an IC50 of over 1000 nM.
